Laboratory results published in patent US20230365592A1 (Agios Pharmaceuticals, Inc., priority 2022, published 2023).

These compounds were tested against T1, human PAH with the R408W mutation (Homo sapiens, UniProt P00439, R408W) (assay: Cell Based Phenylalanine Flux Assay). Conditions: A375 cells expressing human R408W PAH; 24 hrs compound incubation; 13C-Tyrosine by LC-MS; average where tested multiple times; read-out: AC50.
T1 construct: expressed in transfected cells
T1 sequence (P00439 1-452 R408W): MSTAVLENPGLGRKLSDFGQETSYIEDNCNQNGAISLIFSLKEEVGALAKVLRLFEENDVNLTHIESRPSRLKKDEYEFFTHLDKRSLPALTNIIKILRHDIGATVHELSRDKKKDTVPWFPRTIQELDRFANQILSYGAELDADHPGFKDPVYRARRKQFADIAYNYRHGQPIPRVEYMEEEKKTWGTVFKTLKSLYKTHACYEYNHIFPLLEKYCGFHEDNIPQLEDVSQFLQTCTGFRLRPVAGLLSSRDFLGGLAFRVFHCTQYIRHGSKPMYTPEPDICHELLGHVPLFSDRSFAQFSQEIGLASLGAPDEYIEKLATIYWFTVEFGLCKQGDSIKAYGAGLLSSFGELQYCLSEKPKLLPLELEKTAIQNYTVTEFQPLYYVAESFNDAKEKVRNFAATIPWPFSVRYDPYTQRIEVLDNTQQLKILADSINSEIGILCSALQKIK
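Also: after compound treatment, cells received sepiapterin plus isotope-labelled Phenylalanine for 4 hours, then labelled Tyrosine in the medium was quantified, 10-point 2-fold dilution series run in duplicate.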

| SMILES | AC50 |
| --- | --- |
| O=C(c1nnc(C2CCC2)o1)N1CCc2[nH]cnc2[C@H]1c1cc2cccc(C(F)F)n2n1 [Example 1573, (S)-(5-cyclobutyl-1,3,4-oxadiazol-2-yl)(4-(7-(difluoromethyl)pyrazolo[1,5-a]pyridin-2-yl)-6,7-dihydro-1H-imidazo[4,5-c]pyridin-5(4H)-yl)methanone] | 0.5 to 1 µM |
| COc1ccc(-c2nnc(C(=O)N3CCc4[nH]cnc4[C@H]3c3cc4cccc(C(F)F)n4n3)o2)nc1 [Example 1578, (S)-(4-(7-(difluoromethyl)pyrazolo[1,5-a]pyridin-2-yl)-6,7-dihydro-1H-imidazo[4,5-c]pyridin-5(4H)-yl)(5-(5-methoxypyridin-2-yl)-1,3,4-oxadiazol-2-yl)methanone] | 0.5 to 1 µM |
| COc1ccc(-c2nnc(C(=O)N3CCc4[nH]cnc4[C@@H]3c3cc4cccc(C(F)F)n4n3)o2)nc1 [Example 1579, (R)-(4-(7-(difluoromethyl)pyrazolo[1,5-a]pyridin-2-yl)-6,7-dihydro-1H-imidazo[4,5-c]pyridin-5(4H)-yl)(5-(5-methoxypyridin-2-yl)-1,3,4-oxadiazol-2-yl)methanone] | > 5 µM |
| O=C(c1nnc(-c2ncccc2F)o1)N1CCc2[nH]cnc2[C@H]1c1cc2cccc(C(F)F)n2n1 [Example 1580, (S)-(4-(7-(difluoromethyl)pyrazolo[1,5-a]pyridin-2-yl)-6,7-dihydro-1H-imidazo[4,5-c]pyridin-5(4H)-yl)(5-(3-fluoropyridin-2-yl)-1,3,4-oxadiazol-2-yl)methanone] | < 0.5 µM |
| O=C(c1nnc(-c2ncccc2F)o1)N1CCc2[nH]cnc2[C@@H]1c1cc2cccc(C(F)F)n2n1 [Example 1581, (R)-(4-(7-(difluoromethyl)pyrazolo[1,5-a]pyridin-2-yl)-6,7-dihydro-1H-imidazo[4,5-c]pyridin-5(4H)-yl)(5-(3-fluoropyridin-2-yl)-1,3,4-oxadiazol-2-yl)methanone] | > 5 µM |
| Cc1nn(C)cc1-c1nnc(C(=O)N2CCc3[nH]cnc3[C@H]2c2cc3cccc(C(F)F)n3n2)o1 [Example 1582, (S)-(4-(7-(difluoromethyl)pyrazolo[1,5-a]pyridin-2-yl)-6,7-dihydro-1H-imidazo[4,5-c]pyridin-5(4H)-yl)(5-(1,3-dimethyl-1H-pyrazol-4-yl)-1,3,4-oxadiazol-2-yl)methanone] | 0.5 to 1 µM |
| Cc1nn(C)cc1-c1nnc(C(=O)N2CCc3[nH]cnc3[C@@H]2c2cc3cccc(C(F)F)n3n2)o1 [Example 1583, (R)-(4-(7-(difluoromethyl)pyrazolo[1,5-a]pyridin-2-yl)-6,7-dihydro-1H-imidazo[4,5-c]pyridin-5(4H)-yl)(5-(1,3-dimethyl-1H-pyrazol-4-yl)-1,3,4-oxadiazol-2-yl)methanone] | > 5 µM |
| Cc1cnn(C)c1-c1nnc(C(=O)N2CCc3[nH]cnc3[C@H]2c2cc3cccc(C(F)F)n3n2)o1 [Example 1584, (S)-(4-(7-(difluoromethyl)pyrazolo[1,5-a]pyridin-2-yl)-6,7-dihydro-1H-imidazo[4,5-c]pyridin-5(4H)-yl)(5-(1,4-dimethyl-1H-pyrazol-5-yl)-1,3,4-oxadiazol-2-yl)methanone] | 0.5 to 1 µM |
| Cc1cnn(C)c1-c1nnc(C(=O)N2CCc3[nH]cnc3[C@@H]2c2cc3cccc(C(F)F)n3n2)o1 [Example 1585, (R)-(4-(7-(difluoromethyl)pyrazolo[1,5-a]pyridin-2-yl)-6,7-dihydro-1H-imidazo[4,5-c]pyridin-5(4H)-yl)(5-(1,4-dimethyl-1H-pyrazol-5-yl)-1,3,4-oxadiazol-2-yl)methanone] | > 5 µM |
| Cc1cccn2nc([C@H]3c4nc[nH]c4CCN3c3nnc(C4CC4)o3)cc12 [Example 1588, (R)-2-cyclopropyl-5-(4-(4-methylpyrazolo[1,5-a]pyridin-2-yl)-6,7-dihydro-1H-imidazo[4,5-c]pyridin-5(4H)-yl)-1,3,4-oxadiazole] | > 5 µM |
| Cc1cccn2nc([C@@H]3c4nc[nH]c4CCN3c3nnc(C4CC4)o3)cc12 [Example 1589, (S)-2-cyclopropyl-5-(4-(4-methylpyrazolo[1,5-a]pyridin-2-yl)-6,7-dihydro-1H-imidazo[4,5-c]pyridin-5(4H)-yl)-1,3,4-oxadiazole] | 0.5 to 1 µM |
| c1cnc(N2CCc3[nH]cnc3[C@@H]2c2cc3ccccn3n2)nc1 [Example 1593, (R)-4-(pyrazolo[1,5-a]pyridin-2-yl)-5-(pyrimidin-2-yl)-4,5,6,7-tetrahydro-1H-imidazo[4,5-c]pyridine] | 1 to 5 µM |
| Cc1cccc(-c2nnc(C(=O)N3CCc4[nH]cnc4[C@H]3c3cc4cccc(C(F)F)n4n3)o2)n1 [Example 1594, (S)-(4-(7-(difluoromethyl)pyrazolo[1,5-a]pyridin-2-yl)-6,7-dihydro-1H-imidazo[4,5-c]pyridin-5(4H)-yl)(5-(6-methylpyridin-2-yl)-1,3,4-oxadiazol-2-yl)methanone] | < 0.5 µM |
| Cc1cccc(-c2nnc(C(=O)N3CCc4[nH]cnc4[C@@H]3c3cc4cccc(C(F)F)n4n3)o2)n1 [Example 1595, (R)-(4-(7-(difluoromethyl)pyrazolo[1,5-a]pyridin-2-yl)-6,7-dihydro-1H-imidazo[4,5-c]pyridin-5(4H)-yl)(5-(6-methylpyridin-2-yl)-1,3,4-oxadiazol-2-yl)methanone] | > 5 µM |
| Cn1ccc(-c2ccc3c(C(=O)N4CCc5[nH]cnc5[C@H]4c4cc5c(C(F)(F)F)cccn5n4)cnn3c2)n1 [Example 1596, (S)-(6-(1-methyl-1H-pyrazol-3-yl)pyrazolo[1,5-a]pyridin-3-yl)(4-(4-(trifluoromethyl)pyrazolo[1,5-a]pyridin-2-yl)-6,7-dihydro-1H-imidazo[4,5-c]pyridin-5(4H)-yl)methanone] | < 0.5 µM |
| Cn1ccc(-c2ccc3c(C(=O)N4CCc5[nH]cnc5[C@@H]4c4cc5c(C(F)(F)F)cccn5n4)cnn3c2)n1 [Example 1597, (R)-(6-(1-methyl-1H-pyrazol-3-yl)pyrazolo[1,5-a)pyridin-3-yl)(4-(4-(trifluoromethyl)pyrazolo[1,5-a]pyridin-2-yl)-6,7-dihydro-1H-imidazo[4,5-c]pyridin-5(4H)-yl)methanone] | > 5 µM |
| FC(F)c1cccn2nc([C@@H]3c4nc[nH]c4CCN3c3nnc(C4CC4)o3)cc12 [Example 1607, (S)-2-cyclopropyl-5-(4-(4-(difluoromethyl)pyrazolo[1,5-a]pyridin-2-yl)-6,7-dihydro-1H-imidazo[4,5-c]pyridin-5(4H)-yl)-1,3,4-oxadiazole] | 0.5 to 1 µM |

Other lines, results leading:

| AC50 | SMILES |
| --- | --- |
| 1 to 5 µM | O=C(c1nnc(C2CCC2)o1)N1CCc2[nH]cnc2[C@@H]1c1cc2cccc(F)n2n1 [Example 1574, (R)-(5-cyclobutyl-1,3,4-oxadiazol-2-yl)(4-(7-fluoropyrazolo[1,5-a]pyridin-2-yl)-6,7-dihydro-1H-imidazo[4,5-c]pyridin-5(4H)-yl)methanone] |
| < 0.5 µM | O=C(c1nnc(C2CCC2)o1)N1CCc2[nH]cnc2[C@H]1c1cc2cccc(F)n2n1 [Example 1575, (S)-(5-cyclobutyl-1,3,4-oxadiazol-2-yl)(4-(7-fluoropyrazolo[1,5-a]pyridin-2-yl)-6,7-dihydro-1H-imidazo[4,5-c]pyridin-5(4H)-yl)methanone] |
| 0.5 to 1 µM | Cc1cccn2nc([C@@H]3c4nc[nH]c4CCN3C(=O)c3nnc(C4CC(F)(F)C4)o3)cc12 [Example 1598, (S)-(5-(3,3-difluorocyclobutyl)-1,3,4-oxadiazol-2-yl)(4-(4-methylpyrazolo[1,5-a]pyridin-2-yl)-6,7-dihydro-1H-imidazo[4,5-c]pyridin-5(4H)-yl)methanone] |
| > 5 µM | Cc1cccn2nc([C@H]3c4nc[nH]c4CCN3C(=O)c3nnc(C4CC(F)(F)C4)o3)cc12 [Example 1599, (R)-(5-(3,3-difluorocyclobutyl)-1,3,4-oxadiazol-2-yl)(4-(4-methylpyrazolo[1,5-a]pyridin-2-yl)-6,7-dihydro-1H-imidazo[4,5-c]pyridin-5(4H)-yl)methanone] |
| 0.5 to 1 µM | O=C(c1nnc(C2CC(F)(F)C2)o1)N1CCc2[nH]cnc2[C@H]1c1cc2c(C(F)(F)F)cccn2n1 [Example 1600, (S)-(5-(3,3-difluorocyclobutyl)-1,3,4-oxadiazol-2-yl)(4-(4-(trifluoromethyl)pyrazolo[1,5-a]pyridin-2-yl)-6,7-dihydro-1H-imidazo[4,5-c]pyridin-5(4H)-yl)methanone] |
| 0.5 to 1 µM | O=C(c1nnc(C2CC(F)(F)C2)o1)N1CCc2[nH]cnc2[C@H]1c1cc2c(C(F)F)cccn2n1 [Example 1602, (S)-(5-(3,3-difluorocyclobutyl)-1,3,4-oxadiazol-2-yl)(4-(4-(difluoromethyl)pyrazolo[1,5-a]pyridin-2-yl)-6,7-dihydro-1H-imidazo[4,5-c]pyridin-5(4H)-yl)methanone] |
| 0.5 to 1 µM | O=C(c1nnc(C2CC(F)(F)C2)o1)N1CCc2[nH]cnc2[C@H]1c1cc2c(F)cccn2n1 [Example 1604, (S)-(5-(3,3-difluorocyclobutyl)-1,3,4-oxadiazol-2-yl)(4-(4-fluoropyrazolo[1,5-a)pyridin-2-yl)-6,7-dihydro-1H-imidazo[4,5-c]pyridin-5(4H)-yl)methanone] |
| > 5 µM | O=C(c1nnc(C2CC(F)(F)C2)o1)N1CCc2[nH]cnc2[C@@H]1c1cc2c(F)cccn2n1 [Example 1605, (R)-(5-(3,3-difluorocyclobutyl)-1,3,4-oxadiazol-2-yl)(4-(4-fluoropyrazolo[1,5-a]pyridin-2-yl)-6,7-dihydro-1H-imidazo[4,5-c]pyridin-5(4H)-yl)methanone] |
